Measurements as given in patent US20240174618A1, “SUBSTITUTED (2-HETEROARYLOXYPHENYL)SULFONATES, SALTS THEREOF AND THEIR USE AS HERBICIDAL AGENTS” (Bayer Aktiengesellschaft, priority 2021, published 2024).

Legend:
Assay type in all cases: in vivo
[1] = system: Digitaria sanguinalis (DIGSA); experiment: C. Herbicidal pre-emergence efficacy, DIGSA; conditions: scored after about 3 weeks
How it was run: (§1)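 Pre-emergence test: formulated compounds sprayed as aqueous suspension or emulsion with 0.5% additive at 600 l/ha onto soil covering sown seeds, at rates corresponding to 320 g/ha or less. After about 3 weeks in greenhouse, efficacy scored visually as percent versus untreated controls (100% = plants dead).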

[2] = system: Echinochloa crus-galli (ECHCG); experiment: A. Herbicidal pre-emergence efficacy, ECHCG; conditions: scored visually after about 3 weeks vs untreated controls
How it was run: (§2)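 Applied before emergence onto covering soil at rates of 1280 g/ha or less, using 600 L/ha spray water with 0.5% additive. Scoring: visual % efficacy after ~3 weeks, greenhouse.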

Kochia scoparia (KCHSC) = experiment: A. Herbicidal pre-emergence efficacy, KCHSC
How it was run: as §2

Setaria viridis (SETVI) = experiment: C. Herbicidal pre-emergence efficacy, SETVI; conditions: scored after about 3 weeks
How it was run: as §1

[3] = system: Matricaria inodora (MATIN); experiment: A. Herbicidal pre-emergence efficacy, MATIN
How it was run: as §2

[4] = system: Amaranthus retroflexus (AMARE); experiment: E. Herbicidal post-emergence efficacy, AMARE
How it was run: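 Visual scoring against untreated plants was done roughly 3 weeks after spraying (0% = no effect, 100% = plants dead). Spray application at 320 g/ha or lower, 600 l/ha water with 0.5% additive, was made onto green parts of one-leaf-stage greenhouse plants grown 2-3 weeks in sandy loam.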

Lolium rigidum (LOLRI) = experiment: A. Herbicidal pre-emergence efficacy, LOLRI
How it was run: as §2

Poa annua (POAAN) = experiment: B. Herbicidal post-emergence efficacy, POAAN
How it was run: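 Visual percent efficacy relative to untreated controls (0% unaffected, 100% dead), scored roughly 3 weeks after foliar spraying of one-leaf-stage pot-grown plants with WP or EC preparations at application rates up to 1280 g/ha in 600 L/ha water containing 0.5% additive.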

[5] = pre-emergence, dosage 1280 g/ha
[6] = 80 g/ha, scored visually after about 3 weeks vs untreated controls
[7] = 320 g/ha, scored visually after about 3 weeks vs untreated controls

Structure (SMILES) | Pre-emergence efficacy against DIGSA ([1]; 80 g/ha) [%] | Pre-emergence efficacy against DIGSA ([1]; 320 g/ha) [%] | Pre-emergence efficacy against ECHCG ([2]; 80 g/ha) [%] | Pre-emergence efficacy against ECHCG ([2]; 320 g/ha) [%] | Pre-emergence efficacy against ECHCG ([2]; 1280 g/ha) [%] | Pre-emergence efficacy against KCHSC (Kochia scoparia (KCHSC); pre-emergence, dosage 320 g/ha) [%] | Pre-emergence efficacy against KCHSC (Kochia scoparia (KCHSC); [5]) [%] | Pre-emergence efficacy against SETVI (Setaria viridis (SETVI); 80 g/ha) [%] | Pre-emergence efficacy against SETVI (Setaria viridis (SETVI); 320 g/ha) [%] | Pre-emergence efficacy against MATIN [3, 5] [%] | Post-emergence efficacy against AMARE in % ([4]; application rate 320 g/ha) [%] | Pre-emergence efficacy against LOLRI (Lolium rigidum (LOLRI); dosage 320 g/ha) [%] | Pre-emergence efficacy against LOLRI (Lolium rigidum (LOLRI); dosage 1280 g/ha) [%] | Post-emergence efficacy against POAAN (Poa annua (POAAN); 320 g/ha) [%] | Post-emergence efficacy against POAAN (Poa annua (POAAN); 1280 g/ha) [%] | Post-emergence efficacy against AMARE in % ([4]; application rate 80 g/ha) [%] | Pre-emergence efficacy against KCHSC (Kochia scoparia (KCHSC); [6]) [%] | Pre-emergence efficacy against MATIN [3, 7] [%] | Post-emergence efficacy against POAAN (Poa annua (POAAN); 80 g/ha) [%]
Cc1cccc(Oc2ncc(F)cn2)c1OS(=O)(=O)CCC(F)(F)F [Example I-45] | 100 | 100 | 90 | 100 | 100 | 100 | 100 | 100 | 100 | 90 | 80 | 100 | 100 | – | – | – | – | – | –
O=S(=O)(CCC1CC1)Oc1c(F)cccc1Oc1ncc(Cl)cn1 [Example I-55] | 100 | 100 | – | 100 | 100 | 100 | 100 | 80 | 90 | – | 100 | – | 100 | 90 | 90 | 90 | – | – | –
C=CCS(=O)(=O)Oc1ccccc1Oc1ncc(Cl)cn1 [Example I-36] | – | 100 | – | – | 100 | 90 | 100 | – | – | – | – | – | 100 | – | 90 | – | – | – | –
O=S(=O)(CCCCCl)Oc1ccccc1Oc1ncc(Cl)cn1 [Example I-15] | 100 | 100 | 100 | 100 | 100 | 100 | 100 | 80 | 100 | – | 100 | – | 90 | 90 | 90 | 100 | 100 | – | –
Cc1cccc(OS(=O)(=O)CCCCl)c1Oc1ncc(Cl)cn1 [Example I-12] | 90 | 100 | – | 90 | 100 | 90 | 100 | – | – | 100 | 90 | – | 90 | – | 90 | 90 | – | 90 | –
O=S(=O)(CCC(F)(F)F)Oc1c(Br)cccc1Oc1ncc(F)cn1 [Example I-43] | – | 100 | – | 100 | 100 | – | 100 | 100 | 100 | 90 | 100 | 100 | 100 | – | – | 100 | – | – | –
Cc1cccc(Oc2ncc(F)cn2)c1OS(=O)(=O)CCCC(F)(F)F [Example I-46] | 100 | 100 | 100 | 100 | 100 | – | 90 | 100 | 100 | 90 | 90 | 100 | 100 | – | – | – | – | – | –
O=S(=O)(CCC(F)(F)F)Oc1c(F)cccc1Oc1ncc(F)cn1 [Example I-47] | 100 | 100 | 100 | 100 | 100 | 100 | 100 | 100 | 100 | 100 | 100 | 100 | 100 | – | – | 100 | 100 | 100 | –
Cc1cccc(Oc2ncc(Cl)cn2)c1OS(=O)(=O)CC1CC(F)(F)C1 [Example I-74] | 100 | 100 | – | 90 | 100 | 90 | 100 | 100 | 100 | – | 100 | – | 100 | 100 | 100 | 90 | – | – | 90
O=S(=O)(CCC(F)=C(F)F)Oc1c(Cl)cccc1Oc1ncc(Cl)cn1 [Example I-73] | – | 100 | – | – | 90 | 90 | 90 | – | 100 | – | 100 | – | 90 | – | 100 | 80 | – | – | –
N#Cc1cccc(Oc2ncc(Cl)cn2)c1OS(=O)(=O)CCCC(F)(F)F [Example I-81] | 100 | 100 | – | – | – | – | – | 100 | 100 | – | 100 | – | – | – | – | 100 | – | – | –
O=S(=O)(CCCCl)Oc1c(F)cccc1Oc1ncc(Cl)cn1 [Example I-14] | – | – | 100 | 100 | 100 | 100 | 100 | 100 | 100 | 100 | 100 | 100 | 100 | 100 | 100 | 100 | 100 | – | 90
CCCCCS(=O)(=O)Oc1ccccc1Oc1ncc(Cl)cn1 [Example I-24] | 90 | 100 | – | 100 | 100 | – | 100 | – | 80 | – | 100 | – | 100 | 90 | 100 | 90 | – | – | –
O=S(=O)(CCCC(F)(F)F)Oc1c(F)cccc1Oc1ncc(F)cn1 [Example I-42] | 100 | 100 | 100 | 100 | 100 | 100 | 100 | 100 | 100 | 100 | 100 | 100 | 100 | – | – | 100 | 100 | 90 | –
O=S(=O)(CCCC(F)(F)F)Oc1c(Cl)cccc1Oc1ncc(Br)cn1 [Example I-34] | 90 | 100 | – | – | – | – | 90 | 80 | 100 | – | 100 | – | – | 100 | 100 | 100 | – | – | –
